Reference: ChEMBL document CHEMBL1909046, “DrugMatrix in vitro pharmacology data”

Key:
[1] = biological target: Melanocortin receptor 5 (Homo sapiens, UniProt P33032); type: cell membranes, HEK293, Membrane; conditions: hek293; further: in other assays of this panel Not Active means under 50% inhibition at 10 µM
[2] = biological target: Mitogen-activated protein kinase 1 (Homo sapiens, UniProt P28482); assay: DRUGMATRIX: Protein Serine/Threonine Kinase, ERK2 enzyme inhibition (substrate: Myelin Basic Protein); set-up: species or system Escherichia coli; conditions: Not Active = under 50% inhibition at 10 µM
Mitogen-activated protein kinase 1, sequence (P28482 whole entry): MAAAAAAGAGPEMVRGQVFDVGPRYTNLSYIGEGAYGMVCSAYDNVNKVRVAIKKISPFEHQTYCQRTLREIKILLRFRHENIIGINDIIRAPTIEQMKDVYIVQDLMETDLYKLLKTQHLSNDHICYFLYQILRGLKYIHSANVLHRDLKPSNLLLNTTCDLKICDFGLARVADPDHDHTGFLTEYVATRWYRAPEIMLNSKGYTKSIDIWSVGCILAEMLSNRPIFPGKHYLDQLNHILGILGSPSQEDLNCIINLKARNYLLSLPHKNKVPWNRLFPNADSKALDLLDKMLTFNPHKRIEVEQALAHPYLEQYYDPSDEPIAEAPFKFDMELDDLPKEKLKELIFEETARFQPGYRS

[3] = biological target: Sigma non-opioid intracellular receptor 1 (Homo sapiens, UniProt Q99720); assay: DRUGMATRIX: Sigma1 radioligand binding (ligand: [3H] Haloperidol); type: cell membranes, Jurkat, Membrane; conditions: jurkat; Not Active = under 50% inhibition at 10 µM
Sigma non-opioid intracellular receptor 1, sequence (Q99720 whole entry): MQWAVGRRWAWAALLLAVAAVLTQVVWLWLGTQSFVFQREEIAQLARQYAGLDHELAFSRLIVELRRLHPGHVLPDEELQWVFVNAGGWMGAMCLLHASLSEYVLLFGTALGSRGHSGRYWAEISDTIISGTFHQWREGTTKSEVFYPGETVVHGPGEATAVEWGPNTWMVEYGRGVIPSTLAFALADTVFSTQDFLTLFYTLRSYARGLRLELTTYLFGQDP

[4] = biological target: T1, Polyunsaturated fatty acid lipoxygenase ALOX15 (Oryctolagus cuniculus, UniProt P12530); assay: biochemical; type: tissue-based, Reticulocytes; conditions: reticulocytes;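 further: inhibition of 15-lipoxygenase enzyme activity measured with linoleic acid as the substrate; in other assays of this panel Not Active means under 50% inhibition at 10 µM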
T1 sequence (P12530 whole entry): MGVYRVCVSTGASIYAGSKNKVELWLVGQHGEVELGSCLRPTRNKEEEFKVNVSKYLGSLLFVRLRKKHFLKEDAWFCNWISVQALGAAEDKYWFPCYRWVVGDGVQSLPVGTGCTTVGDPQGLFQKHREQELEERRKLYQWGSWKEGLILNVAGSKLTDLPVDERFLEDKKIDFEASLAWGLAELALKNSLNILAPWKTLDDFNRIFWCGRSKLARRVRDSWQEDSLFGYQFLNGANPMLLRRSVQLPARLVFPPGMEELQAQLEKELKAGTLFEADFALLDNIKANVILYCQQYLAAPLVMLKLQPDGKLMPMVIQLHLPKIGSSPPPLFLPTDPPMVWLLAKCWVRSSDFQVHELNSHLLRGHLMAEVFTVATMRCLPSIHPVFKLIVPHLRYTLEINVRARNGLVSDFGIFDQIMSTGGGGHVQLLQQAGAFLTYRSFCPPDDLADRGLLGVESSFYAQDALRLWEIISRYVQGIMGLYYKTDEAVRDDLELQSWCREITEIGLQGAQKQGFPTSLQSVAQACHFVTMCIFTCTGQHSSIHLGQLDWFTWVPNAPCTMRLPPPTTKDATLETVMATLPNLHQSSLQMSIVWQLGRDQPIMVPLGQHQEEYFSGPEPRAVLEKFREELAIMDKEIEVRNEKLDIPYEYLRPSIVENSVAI

[5] = biological target: T2, 5-hydroxytryptamine receptor 2C (Homo sapiens, UniProt P28335); assay: DRUGMATRIX: Serotonin (5-Hydroxytryptamine) 5-HT2C radioligand binding (ligand: [3H] Mesulergine); type: cell membranes, CHO-K1, Membrane; conditions: cho-k1; Not Active = under 50% inhibition at 10 µM
T2 sequence (P28335 whole entry): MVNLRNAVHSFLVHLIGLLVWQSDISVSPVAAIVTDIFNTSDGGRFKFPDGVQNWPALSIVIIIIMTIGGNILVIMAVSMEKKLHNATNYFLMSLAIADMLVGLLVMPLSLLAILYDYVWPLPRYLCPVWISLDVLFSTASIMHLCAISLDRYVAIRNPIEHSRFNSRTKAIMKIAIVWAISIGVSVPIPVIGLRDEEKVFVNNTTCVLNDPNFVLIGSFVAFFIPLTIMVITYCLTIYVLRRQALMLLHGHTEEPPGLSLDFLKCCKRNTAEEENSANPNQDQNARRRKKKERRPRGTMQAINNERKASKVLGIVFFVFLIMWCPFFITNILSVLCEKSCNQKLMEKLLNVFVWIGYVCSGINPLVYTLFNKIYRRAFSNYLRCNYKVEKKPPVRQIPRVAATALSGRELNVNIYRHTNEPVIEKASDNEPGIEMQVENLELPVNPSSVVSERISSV

[6] = biological target: T3, Neuropeptide Y receptor type 1 (Homo sapiens, UniProt P25929); type: cell membranes, Membrane; conditions: sk-n-mc; further: in other assays of this panel Not Active means under 50% inhibition at 10 µM
T3 sequence (P25929 whole entry): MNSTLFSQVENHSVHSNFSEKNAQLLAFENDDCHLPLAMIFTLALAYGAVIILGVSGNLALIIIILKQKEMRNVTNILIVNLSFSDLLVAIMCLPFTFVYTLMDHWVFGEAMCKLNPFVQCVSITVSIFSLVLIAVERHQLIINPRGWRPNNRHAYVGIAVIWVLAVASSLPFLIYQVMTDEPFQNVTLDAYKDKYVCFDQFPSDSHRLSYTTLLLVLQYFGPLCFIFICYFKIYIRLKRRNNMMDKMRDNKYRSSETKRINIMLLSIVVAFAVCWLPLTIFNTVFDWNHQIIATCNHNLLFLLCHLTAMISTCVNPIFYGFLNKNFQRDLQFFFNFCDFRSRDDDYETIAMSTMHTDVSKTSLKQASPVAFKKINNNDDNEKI

[7] = biological target: T4, Cholecystokinin receptor type A (Homo sapiens, UniProt P32238); type: cell membranes, Membrane; conditions: 1321-n1; further: in other assays of this panel Not Active means under 50% inhibition at 10 µM
T4 sequence (P32238 whole entry): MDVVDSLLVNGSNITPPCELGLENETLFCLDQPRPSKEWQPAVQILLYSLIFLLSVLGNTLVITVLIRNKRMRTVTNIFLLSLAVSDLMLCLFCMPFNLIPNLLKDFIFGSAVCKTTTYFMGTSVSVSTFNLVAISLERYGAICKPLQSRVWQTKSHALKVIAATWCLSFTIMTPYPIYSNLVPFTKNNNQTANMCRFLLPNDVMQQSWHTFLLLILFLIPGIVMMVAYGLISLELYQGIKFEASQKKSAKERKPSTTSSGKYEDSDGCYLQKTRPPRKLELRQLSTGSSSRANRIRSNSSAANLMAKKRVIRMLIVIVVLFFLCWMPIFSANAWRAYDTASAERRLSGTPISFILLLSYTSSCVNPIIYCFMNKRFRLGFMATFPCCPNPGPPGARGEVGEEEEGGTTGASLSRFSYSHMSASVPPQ

Melanocortin receptor 5, sequence (P33032 whole entry): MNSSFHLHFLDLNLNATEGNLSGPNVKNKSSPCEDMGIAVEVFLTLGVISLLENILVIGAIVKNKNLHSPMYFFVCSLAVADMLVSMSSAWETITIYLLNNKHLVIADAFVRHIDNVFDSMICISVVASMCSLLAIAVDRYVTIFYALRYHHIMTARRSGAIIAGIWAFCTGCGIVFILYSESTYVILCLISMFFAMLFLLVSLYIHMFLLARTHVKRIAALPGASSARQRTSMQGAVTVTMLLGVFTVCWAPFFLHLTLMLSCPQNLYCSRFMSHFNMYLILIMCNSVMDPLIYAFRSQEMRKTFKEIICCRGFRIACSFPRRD

TRANSPLATIN
Not Active: IC50 [1] | Ki [1] | IC50 [2] | Ki [2] | IC50 [3] | Ki [3] | IC50 [4] | Ki [4] | IC50 [5] | Ki [5] | IC50 [6] | Ki [6] | IC50 [7] | Ki [7]

O=C(O)COc1ccc(C(=O)c2cccs2)c(Cl)c1Cl
Not Active: IC50 [1] | IC50 [2] | IC50 [3] | IC50 [4] | IC50 [5] | IC50 [6] | IC50 [7]

ZIRCONIUM(IV) CHLORIDE
Not Active: IC50 [1] | Ki [1] | IC50 [2] | Ki [2] | IC50 [3] | Ki [3] | IC50 [4] | Ki [4] | IC50 [5] | Ki [5] | IC50 [6] | Ki [6] | IC50 [7] | Ki [7]
